Like-named read-outs stand apart in the source and are kept apart here.
Key:
[1] = In vivo stability in mouse urine at 1 h p.i. (radio-HPLC); set-up: species or system C57BL/6J mice
Method: All animal experiments were conducted in according to the guidelines established by Canadian Council on Animal Care and approved by Animal Ethics Committee of the University of British Columbia. Mice were housed under pathogen-free conditions and kept on twelve hours light and twelve hours dark cycle in the Animal Research Centre, BC Cancer Research Centre, Vancouver, Canada. C57BL/6J mice were anesthetized by inhalation with 2% isoflurane in 2.0 L/min of oxygen, and approximately 4-6 MBq of [^68Ga]Ga-CCZ01099 or [^68Ga]Ga-CCZ01048 was injected intravenously. The mice were allowed to recover and roam freely in their cages. At 1 h post-injection (p.i.), the mice were euthanized by CO2 inhalation and their urine was collected and analyzed on HPLC for metabolite using the conditions described above. In vivo urine stability of [^68Ga]Ga-CCZ01099 and [^68Ga]Ga-CCZ01048 were 34.0±10.4% and ≥98.0% (n≥3), respectively.
The in vivo stability tests in mouse urine were performed as described in Example 1. […] With systematic reduction in the number of N-methylations for the αMSH analogues, a decrease in in vivo stability was observed.

[2] = Biodistribution of 68Ga-labeled peptide in mice bearing B16F10 mouse melanoma; assay type: in vivo, C57BL/6J mice; conditions: iv, total radioactivity; for tissue uptake at 2 h: 2 h p.i. unblocked
Method: The B16-F10 melanoma cell line (Mus musculus) used in the tumor model was obtained commercially from ATTC (CRL-6475). Cells were cultured in Dulbecco's Modified Eagle's Medium (DMEM, StemCell Technologies) supplemented by 10% FBS, 100 U/mL penicillin and 100 μg/mL streptomycin at 37° C. in a humidified incubator containing 5% CO2. Cells grown to roughly 90% confluence were washed with sterile phosphate-buffered saline (lx PBS, pH 7.4), followed by trypsinization. For tumour implantation, C57BL/6J mice were anesthetized by inhalation with 2% isoflurane in 2.0 L/min of oxygen, 2×10^6 B16-F10 cells were inoculated subcutaneously on right dorsal flank. Mice were imaged or used in biodistribution studies once the tumour reached 6-8 mm in diameter.
Similar to PET/CT imaging, tumour-bearing mice were injected with 1-2 MBq of ^68Ga-labeled CCZ01099 via tail vein under anesthesia with or without co-injection of 0.5 mg of MC1R-specific inhibitor BMS 470539. At 1 or 2 h p.i., the mice were anesthetized again, and euthanized by CO2 inhalation. Blood was promptly withdrawn, and the organs of interest were harvested, rinsed with 1×PBS (pH 7.4), and blotted dry. Each organ was then weighed and the radioactivity of the collected tissue was measured using a Wallac WIZARD2 gamma counter (Perkin Elmer), normalized to the injected dose using a standard curve and expressed as the percentage of the injected dose per gram of tissue (% ID/g). Table 3 summarizes the biodistribution data of ^68Ga-labeled CCZ01099 at 1 and 2 h p.i., as well as 1 h p.i. with co-injection of 0.5 mg of MC1R-specific inhibitor BMS 470539. Minimal background tissue radioactivity accumulation was observed, except for kidney, which is expected as the radiolabeled peptides were cleared through the renal pathway.

- In vivo urine stability, intact tracer [1]: 34.0±10.4%
- tissue uptake at 1 h ([2]; B16F10 tumour, 1 h p.i. unblocked, C57BL/6J mice, B16F10 melanoma, read-out: Biodistribution, B16F10 tumour): 6.12 ± 1.43 %ID/g
- tissue uptake at 2 h ([2]; B16F10 tumour, C57BL/6J mice, B16F10 melanoma, read-out: Biodistribution, B16F10 tumour): 5.22 ± 1.3 %ID/g
- tissue uptake at 1 h ([2]; C57BL/6J, B16F10 tumour, with BMS 470539 (MC1R-specific inhibitor), 0.5 mg co-injected, 1 h p.i. blocked, co-injection of 0.5 mg BMS 470539, read-out: Biodistribution, B16F10 tumour): 0.6 ± 0.15 %ID/g
- tissue uptake at 1 h ([2]; C57BL/6J, adrenal glands, with BMS 470539 (MC1R-specific inhibitor), 0.5 mg co-injected, 1 h p.i. blocked, co-injection of 0.5 mg BMS 470539, read-out: Biodistribution, Adrenal glands): 0.45 ± 0.29 %ID/g
- tissue uptake at 1 h ([2]; C57BL/6J, bone, with BMS 470539 (MC1R-specific inhibitor), 0.5 mg co-injected, 1 h p.i. blocked, co-injection of 0.5 mg BMS 470539, read-out: Biodistribution, Bone): 0.17 ± 0.1 %ID/g
- tissue uptake at 1 h ([2]; C57BL/6J, brain, with BMS 470539 (MC1R-specific inhibitor), 0.5 mg co-injected, 1 h p.i. blocked, co-injection of 0.5 mg BMS 470539, read-out: Biodistribution, Brain): 0.03 ± 0.02 %ID/g
- tissue uptake at 1 h ([2]; C57BL/6J, fat, with BMS 470539 (MC1R-specific inhibitor), 0.5 mg co-injected, 1 h p.i. blocked, co-injection of 0.5 mg BMS 470539, read-out: Biodistribution, Fat): 0.04 ± 0.02 %ID/g
- tissue uptake at 1 h ([2]; C57BL/6J, heart, with BMS 470539 (MC1R-specific inhibitor), 0.5 mg co-injected, 1 h p.i. blocked, co-injection of 0.5 mg BMS 470539, read-out: Biodistribution, Heart): 0.13 ± 0.02 %ID/g
- tissue uptake at 1 h ([2]; C57BL/6J, intestine, with BMS 470539 (MC1R-specific inhibitor), 0.5 mg co-injected, 1 h p.i. blocked, co-injection of 0.5 mg BMS 470539, read-out: Biodistribution, Intestine): 0.17 ± 0.05 %ID/g
- tissue uptake at 1 h ([2]; C57BL/6J, kidneys, with BMS 470539 (MC1R-specific inhibitor), 0.5 mg co-injected, 1 h p.i. blocked, co-injection of 0.5 mg BMS 470539, read-out: Biodistribution, Kidneys): 2.62 ± 0.91 %ID/g
- tissue uptake at 1 h ([2]; C57BL/6J, liver, with BMS 470539 (MC1R-specific inhibitor), 0.5 mg co-injected, 1 h p.i. blocked, co-injection of 0.5 mg BMS 470539, read-out: Biodistribution, Liver): 0.38 ± 0.11 %ID/g
- tissue uptake at 1 h ([2]; C57BL/6J, lungs, with BMS 470539 (MC1R-specific inhibitor), 0.5 mg co-injected, 1 h p.i. blocked, co-injection of 0.5 mg BMS 470539, read-out: Biodistribution, Lungs): 0.34 ± 0.13 %ID/g
- tissue uptake at 1 h ([2]; C57BL/6J, muscle, with BMS 470539 (MC1R-specific inhibitor), 0.5 mg co-injected, 1 h p.i. blocked, co-injection of 0.5 mg BMS 470539, read-out: Biodistribution, Muscle): 0.08 ± 0.03 %ID/g
- tissue uptake at 1 h ([2]; C57BL/6J, pancreas, with BMS 470539 (MC1R-specific inhibitor), 0.5 mg co-injected, 1 h p.i. blocked, co-injection of 0.5 mg BMS 470539, read-out: Biodistribution, Pancreas): 0.08 ± 0.01 %ID/g
- tissue uptake at 1 h ([2]; C57BL/6J, seminal glands, with BMS 470539 (MC1R-specific inhibitor), 0.5 mg co-injected, 1 h p.i. blocked, co-injection of 0.5 mg BMS 470539, read-out: Biodistribution, Seminal glands): 0.07 ± 0.03 %ID/g
- tissue uptake at 1 h ([2]; C57BL/6J, spleen, with BMS 470539 (MC1R-specific inhibitor), 0.5 mg co-injected, 1 h p.i. blocked, co-injection of 0.5 mg BMS 470539, read-out: Biodistribution, Spleen): 0.52 ± 0.28 %ID/g
- tissue uptake at 1 h ([2]; C57BL/6J, stomach, with BMS 470539 (MC1R-specific inhibitor), 0.5 mg co-injected, 1 h p.i. blocked, co-injection of 0.5 mg BMS 470539, read-out: Biodistribution, Stomach): 0.19 ± 0.12 %ID/g
- tissue uptake at 1 h ([2]; C57BL/6J, testes, with BMS 470539 (MC1R-specific inhibitor), 0.5 mg co-injected, 1 h p.i. blocked, co-injection of 0.5 mg BMS 470539, read-out: Biodistribution, Testes): 0.1 ± 0.02 %ID/g
- tissue uptake at 1 h ([2]; C57BL/6J, thyroid, with BMS 470539 (MC1R-specific inhibitor), 0.5 mg co-injected, 1 h p.i. blocked, co-injection of 0.5 mg BMS 470539, read-out: Biodistribution, Thyroid): 0.13 ± 0.05 %ID/g
- tissue uptake at 1 h ([2]; C57BL/6J, whole blood, with BMS 470539 (MC1R-specific inhibitor), 0.5 mg co-injected, 1 h p.i. blocked, co-injection of 0.5 mg BMS 470539, read-out: Biodistribution, Blood): 0.27 ± 0.04 %ID/g
- tissue uptake at 1 h ([2]; adrenal glands, 1 h p.i. unblocked, C57BL/6J mice, B16F10 melanoma, read-out: Biodistribution, Adrenal glands): 0.71 ± 0.67 %ID/g
- tissue uptake at 2 h ([2]; adrenal glands, C57BL/6J mice, B16F10 melanoma, read-out: Biodistribution, Adrenal glands): 0.33 ± 0.19 %ID/g
- tissue uptake at 1 h ([2]; bone, 1 h p.i. unblocked, C57BL/6J mice, B16F10 melanoma, read-out: Biodistribution, Bone): 0.32 ± 0.16 %ID/g
- tissue uptake at 2 h ([2]; bone, C57BL/6J mice, B16F10 melanoma, read-out: Biodistribution, Bone): 0.1 ± 0.03 %ID/g
- tissue uptake at 1 h ([2]; brain, 1 h p.i. unblocked, C57BL/6J mice, B16F10 melanoma, read-out: Biodistribution, Brain): 0.05 ± 0.04 %ID/g
- tissue uptake at 2 h ([2]; brain, C57BL/6J mice, B16F10 melanoma, read-out: Biodistribution, Brain): 0.01 %ID/g
SMILES: CCCC[C@H](NC(=O)CN1CCC(NC(=O)CN2CCN(CC(=O)O)CCN(CC(=O)O)CCN(CC(=O)O)CC2)CC1)C(=O)N[C@H]1CC(=O)NCCCC[C@@H](C(N)=O)N(C)C(=O)[C@H](Cc2c[nH]c3ccccc23)N(C)C(=O)[C@H](CCCNC(=N)N)N(C)C(=O)[C@@H](Cc2ccccc2)NC(=O)[C@H](Cc2c[nH]cn2)N(C)C1=O [^68Ga-labeled CCZ01099, metal not drawn]
